Measurements from PubChem BioAssay AID1963868 (Molecular Pharmacology Branch, DTP, NCI, 2024).

Test system: KRAS PDC tumor spheroids (HUVEC+MSC), viability
Assay: Anticancer human tumor 254851-301-R-J1-PDC patient-derived colon carcinoma cell line growth inhibition [KRAS2]
Details: for IC50: curve of first compound; for viability, T/C: stronger effect = lower value
Procedure, shortened: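 Combination screen of spheroid viability in tumor-cell co-cultures with endothelial (HUVEC) and mesenchymal stem cell stroma. Each agent was tested in half-log dilutions, topping at clinical Cmax or at 10 microM without a known Cmax.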

[1] = second compound 0.1 µM, first compound 0.0316 µM
[2] = second compound 0.316 µM, first compound 0.0316 µM
[3] = second compound 1 µM, first compound 0.0316 µM
[4] = second compound 3.16 µM, first compound 0.0316 µM
[5] = second compound 10 µM, first compound 0.0316 µM
[6] = second compound 0.1 µM, first compound 0.1 µM
[7] = second compound 0.1 µM, first compound 0.316 µM
[8] = second compound 0.1 µM, first compound 1 µM
[9] = second compound 0.1 µM, first compound 3.16 µM
[10] = second compound 0.1 µM, first compound 10 µM
[11] = second compound 0.316 µM, first compound 0.1 µM
[12] = second compound 0.316 µM, first compound 0.316 µM
[13] = second compound 0.316 µM, first compound 1 µM
[14] = second compound 0.316 µM, first compound 3.16 µM
[15] = second compound 0.316 µM, first compound 10 µM
[16] = second compound 1 µM, first compound 0.1 µM
[17] = second compound 1 µM, first compound 0.316 µM
[18] = second compound 1 µM, first compound 1 µM
[19] = second compound 1 µM, first compound 3.16 µM
[20] = second compound 1 µM, first compound 10 µM
[21] = second compound 3.16 µM, first compound 0.1 µM
[22] = second compound 3.16 µM, first compound 0.316 µM
[23] = second compound 3.16 µM, first compound 1 µM
[24] = second compound 3.16 µM, first compound 3.16 µM
[25] = second compound 3.16 µM, first compound 10 µM
[26] = second compound 10 µM, first compound 0.1 µM
[27] = second compound 10 µM, first compound 0.316 µM
[28] = second compound 10 µM, first compound 1 µM
[29] = second compound 10 µM, first compound 3.16 µM
[30] = second compound 10 µM, first compound 10 µM
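Note: spheroids exposed to compounds for seven days before readout.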
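Throughout, for viability, T/C: 100% = DMSO vehicle control luminescence of the spheroids.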

CC(=O)Nc1cccc(-n2c(=O)n(C3CC3)c(=O)c3c(Nc4ccc(I)cc4F)n(C)c(=O)c(C)c32)c1 + CC1OCC2(CCN(c3cnc(Sc4ccnc(N)c4Cl)c(N)n3)CC2)C1N
IC50 (second compound 0.1 µM): 4.15 nM | IC50 (second compound 0.316 µM): 3.45 nM | IC50 (second compound 1 µM): 2.18 nM | IC50 (second compound 3.16 µM): 0.975 nM | IC50 (second compound 10 µM): 0.395 nM | viability, T/C (second compound 0.1 µM, first compound 0.0001 µM): 92.1% | viability, T/C (second compound 0.1 µM, first compound 0.000316 µM): 100% | viability, T/C (second compound 0.1 µM, first compound 0.001 µM): 85.7% | viability, T/C (second compound 0.1 µM, first compound 0.00316 µM): 63% | viability, T/C (second compound 0.1 µM, first compound 0.01 µM): 10.8% | viability, T/C [1]: 2.77% | viability, T/C (second compound 0.316 µM, first compound 0.0001 µM): 98.7% | viability, T/C (second compound 0.316 µM, first compound 0.000316 µM): 82% | viability, T/C (second compound 0.316 µM, first compound 0.001 µM): 87.3% | viability, T/C (second compound 0.316 µM, first compound 0.00316 µM): 53.8% | viability, T/C (second compound 0.316 µM, first compound 0.01 µM): 5.84% | viability, T/C [2]: 2.66% | viability, T/C (second compound 1 µM, first compound 0.0001 µM): 80.7% | viability, T/C (second compound 1 µM, first compound 0.000316 µM): 79% | viability, T/C (second compound 1 µM, first compound 0.001 µM): 75% | viability, T/C (second compound 1 µM, first compound 0.00316 µM): 38% | viability, T/C (second compound 1 µM, first compound 0.01 µM): 3.61% | viability, T/C [3]: 1.88% | viability, T/C (second compound 3.16 µM, first compound 0.0001 µM): 66.2% | viability, T/C (second compound 3.16 µM, first compound 0.000316 µM): 74.4% | viability, T/C (second compound 3.16 µM, first compound 0.001 µM): 49.4% | viability, T/C (second compound 3.16 µM, first compound 0.00316 µM): 4.29% | viability, T/C (second compound 3.16 µM, first compound 0.01 µM): 2.24% | viability, T/C [4]: 1.57% | viability, T/C (second compound 10 µM, first compound 0.0001 µM): 69.1% | viability, T/C (second compound 10 µM, first compound 0.000316 µM): 59.7% | viability, T/C (second compound 10 µM, first compound 0.001 µM): 9.76% | viability, T/C (second compound 10 µM, first compound 0.00316 µM): 2.21% | viability, T/C (second compound 10 µM, first compound 0.01 µM): 1.43% | viability, T/C [5]: 1.76%

COC(=O)c1ccc2c(C(=Nc3ccc(N(C)C(=O)CN4CCN(C)CC4)cc3)c3ccccc3)c(O)[nH]c2c1 + CC1OCC2(CCN(c3cnc(Sc4ccnc(N)c4Cl)c(N)n3)CC2)C1N
IC50 (second compound 0.1 µM): > 10000 nM | IC50 (second compound 0.316 µM): > 10000 nM | IC50 (second compound 1 µM): > 10000 nM | IC50 (second compound 3.16 µM): > 10000 nM | IC50 (second compound 10 µM): 2370 nM | viability, T/C [1]: 95.4% | viability, T/C [6]: 100% | viability, T/C [7]: 96% | viability, T/C [8]: 95% | viability, T/C [9]: 90.4% | viability, T/C [10]: 88.6% | viability, T/C [2]: 88.3% | viability, T/C [11]: 84.5% | viability, T/C [12]: 79.5% | viability, T/C [13]: 81.8% | viability, T/C [14]: 82% | viability, T/C [15]: 78.5% | viability, T/C [3]: 75.6% | viability, T/C [16]: 76.1% | viability, T/C [17]: 75.6% | viability, T/C [18]: 68.1% | viability, T/C [19]: 69.2% | viability, T/C [20]: 81.6% | viability, T/C [4]: 64.9% | viability, T/C [21]: 67.5% | viability, T/C [22]: 66% | viability, T/C [23]: 65.1% | viability, T/C [24]: 55.1% | viability, T/C [25]: 63% | viability, T/C [5]: 63.5% | viability, T/C [26]: 70% | viability, T/C [27]: 57.9% | viability, T/C [28]: 60.7% | viability, T/C [29]: 41.4% | viability, T/C [30]: 41.6%

COc1cc(Nc2ncc3c(n2)-c2ccc(Cl)cc2C(c2c(F)cccc2OC)=NC3)ccc1C(=O)O + CC1OCC2(CCN(c3cnc(Sc4ccnc(N)c4Cl)c(N)n3)CC2)C1N
IC50 (second compound 0.1 µM): 87.5 nM | IC50 (second compound 0.316 µM): 79 nM | IC50 (second compound 1 µM): 76.4 nM | IC50 (second compound 3.16 µM): 61.4 nM | IC50 (second compound 10 µM): 41.4 nM | viability, T/C [1]: 91.7% | viability, T/C [6]: 39.8% | viability, T/C [7]: 28.8% | viability, T/C [8]: 24.9% | viability, T/C [9]: 17.1% | viability, T/C [10]: 7.2% | viability, T/C [2]: 81.1% | viability, T/C [11]: 37% | viability, T/C [12]: 28.2% | viability, T/C [13]: 22.6% | viability, T/C [14]: 13.8% | viability, T/C [15]: 6.88% | viability, T/C [3]: 86.1% | viability, T/C [16]: 33.1% | viability, T/C [17]: 29.1% | viability, T/C [18]: 23.1% | viability, T/C [19]: 14.6% | viability, T/C [20]: 7.07% | viability, T/C [4]: 70.9% | viability, T/C [21]: 30.7% | viability, T/C [22]: 23.9% | viability, T/C [23]: 21.7% | viability, T/C [24]: 12.3% | viability, T/C [25]: 5.89% | viability, T/C [5]: 58.1% | viability, T/C [26]: 23.1% | viability, T/C [27]: 21.1% | viability, T/C [28]: 19.8% | viability, T/C [29]: 13.8% | viability, T/C [30]: 6.31%

O=C(c1cc(Cc2n[nH]c(=O)c3ccccc23)ccc1F)N1CCN(C(=O)C2CC2)CC1 + CC1OCC2(CCN(c3cnc(Sc4ccnc(N)c4Cl)c(N)n3)CC2)C1N
IC50 (second compound 0.1 µM): > 10000 nM | IC50 (second compound 0.316 µM): > 10000 nM | IC50 (second compound 1 µM): > 10000 nM | IC50 (second compound 3.16 µM): > 10000 nM | IC50 (second compound 10 µM): > 10000 nM | viability, T/C [1]: 104% | viability, T/C [6]: 107% | viability, T/C [7]: 93.8% | viability, T/C [8]: 88% | viability, T/C [9]: 102% | viability, T/C [10]: 91.3% | viability, T/C [2]: 92.8% | viability, T/C [11]: 95% | viability, T/C [12]: 90.6% | viability, T/C [13]: 93.7% | viability, T/C [14]: 94.7% | viability, T/C [15]: 92.4% | viability, T/C [3]: 93.6% | viability, T/C [16]: 87.1% | viability, T/C [17]: 80.6% | viability, T/C [18]: 83.7% | viability, T/C [19]: 87.6% | viability, T/C [20]: 84% | viability, T/C [4]: 79.4% | viability, T/C [21]: 73.1% | viability, T/C [22]: 73.2% | viability, T/C [23]: 71.2% | viability, T/C [24]: 79.3% | viability, T/C [25]: 65.5% | viability, T/C [5]: 68.9% | viability, T/C [26]: 75.4% | viability, T/C [27]: 66.1% | viability, T/C [28]: 59.9% | viability, T/C [29]: 58.1% | viability, T/C [30]: 60.7%
